Biological target: T1, endogenous interaction between CARP-1 and APC-2 in MDA-MB-468 HBC cells (Homo sapiens, UniProt Q8IX12)
T1 construct: endogenous in cells; host or cells: MDA-MB-468 human breast cancer cells
T1 sequence (Q8IX12 1-1150): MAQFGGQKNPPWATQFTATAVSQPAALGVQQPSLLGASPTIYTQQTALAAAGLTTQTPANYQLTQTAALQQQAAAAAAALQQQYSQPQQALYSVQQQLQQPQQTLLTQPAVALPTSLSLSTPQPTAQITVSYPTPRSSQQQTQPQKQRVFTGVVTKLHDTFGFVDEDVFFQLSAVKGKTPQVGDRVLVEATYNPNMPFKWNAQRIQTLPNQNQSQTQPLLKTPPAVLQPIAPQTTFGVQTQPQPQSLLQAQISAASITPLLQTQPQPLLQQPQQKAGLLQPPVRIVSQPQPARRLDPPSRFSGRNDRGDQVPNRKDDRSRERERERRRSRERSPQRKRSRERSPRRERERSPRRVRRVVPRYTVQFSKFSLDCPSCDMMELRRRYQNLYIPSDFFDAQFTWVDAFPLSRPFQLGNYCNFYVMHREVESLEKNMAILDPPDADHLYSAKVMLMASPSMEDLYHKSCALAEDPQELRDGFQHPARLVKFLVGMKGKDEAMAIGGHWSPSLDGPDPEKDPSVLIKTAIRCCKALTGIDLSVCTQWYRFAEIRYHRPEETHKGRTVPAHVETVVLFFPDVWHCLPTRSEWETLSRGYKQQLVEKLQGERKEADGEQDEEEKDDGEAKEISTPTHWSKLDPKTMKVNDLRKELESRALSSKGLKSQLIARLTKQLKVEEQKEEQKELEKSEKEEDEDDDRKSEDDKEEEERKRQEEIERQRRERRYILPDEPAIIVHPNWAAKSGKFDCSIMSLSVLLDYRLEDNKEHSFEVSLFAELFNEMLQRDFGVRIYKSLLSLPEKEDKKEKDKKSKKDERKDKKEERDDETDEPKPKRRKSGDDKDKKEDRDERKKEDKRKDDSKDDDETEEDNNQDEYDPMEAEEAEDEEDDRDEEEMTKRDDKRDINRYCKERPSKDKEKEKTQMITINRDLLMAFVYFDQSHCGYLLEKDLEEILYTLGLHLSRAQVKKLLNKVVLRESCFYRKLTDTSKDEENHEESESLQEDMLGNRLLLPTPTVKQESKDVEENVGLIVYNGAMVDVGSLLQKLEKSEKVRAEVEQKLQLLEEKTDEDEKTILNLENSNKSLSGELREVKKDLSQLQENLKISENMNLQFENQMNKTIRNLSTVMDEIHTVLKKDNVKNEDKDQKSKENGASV
Test: IP-WB of endogenous CARP-1/APC-2 interaction in treated cells
Type: cell-based
Settings: escalating doses, 12 h
Experimental: FIGS. 2A-2D: Identification of small molecular antagonists of CARP-1 binding with APC-2. 2A, FP assay for CARP-1-APC-2 binding. Increasing concentrations of fluorescein-tagged A-epitope peptide [CARP-1 (951-980)] were incubated with the indicated quantities of the Gst-APC-2(685-754) proteins in assay buffer containing 0.01% triton-X100. Gst-NEMO (221-317) was included as a negative control. mP, millipolarization units. 2B, chemical structures of inhibitors of CARP-1 binding with APC-2 identified from HTS. CFM, CARP-1 Functional Mimetic; CFM-1, (Z)-5-(5-bromo-7-methyl-2-oxoindolin-3-ylidene)-2-thioxothiazolidin-4-one; CFM-4,1-(2-chlorobenzyl)-5′-phenyl-3′H-spiro[indoline-3,2′-[1,3,4]thiadiazol]-2-one; CFM-5,5-bromo-1-phenethyl-5′-phenyl-3′H-spiro[indoline-3,2′-[1,3,4]thiadiazol]-2-one. 2C, CFM-4 and CFM-5 bind CARP-1. […] The complexes were analyzed by SDS-PAGE followed by WB with the noted antibodies. […] Immunoprecipitates or the respective cell lysates were analyzed by WB with noted antibodies as in FIG. 1A. […]
Logarithmically growing cells were either untreated or treated with different agents for various time periods. […] The cell growth inhibition was assessed by using MTT assay. […] The assessment of the live cells was derived by measuring the absorbance of the converted dye at wavelength of 570 nm. […]

O=C1N(Cc2ccccc2Cl)c2ccccc2C12NN=C(c1ccccc1)S2 (stereo not shown) [CFM-4, 1-(2-chlorobenzyl)-5′-phenyl-3′H-spiro[indoline-3,2′-[1,3,4]thiadiazol]-2-one]
Binding of CARP-1 with APC-2 in cells (IP-WB): declined in the presence of CFM-4 in a dose-dependent manner

From patent US9598441B2, “Therapeutic compounds and methods” (Wayne State University, priority 2011, dated 2017)
